According to US20260234566A1, “CELL LINES FOR EXPRESSION OF LHCG RECEPTOR” (Ares Trading S.A., priority 2023, published 2026):
Several values for one entry are separate records, joined by “and”; a condition that tells them apart may be missing. Identical values can stand only once.

Key:
adenylate cyclase (AC) [1] = test: Reporter Gene Assay with forskolin stimulation, HEK 293-T LHCGR Luciferase; format: cell-based, human; conditions: single wells
Description: (§1) Second transfection efficiency evaluation. In order to assess the second transfection efficiency, a Reporter Gene Assay (RGA) was performed. […] HEK 293-T LHCGR Luciferase cells were stimulated with forskolin. As described in literature, forskolin is a diterpene able to activate the adenylate cyclase (AC) allowing the increasing of intracellular cAMP in a wide variety of cell types. Exploiting forskolin ability, the RGA assay enables the evaluation of Reporter Gene Transcription in response to cAMP accumulation without involving the LHCG receptor. The luminescence emitted after Reporter Gene Transcription, was quantified using reagents available on the market. HEK 293-T LHCGR Luciferase and HEK 293-T without transfection were seeded in a 96 well plate and stimulated with different concentration of forskolin. After incubation, the ONE-Glo EX Luciferase assay system (Promega, E8120) was added in each well and, after 10 minutes shaking, results were acquired using the plate reader. Second transfection stability. HEK 293-T LHCGR Luciferase were stimulated with forskolin 4 μM or left unstimulated. Results were reported as a fold change of treated cells over unstimulated control. All % CVs were calculated among fold changes obtained for the three banks and resulted below 25%. The mean and the SD of the 3 banks were calculated and used to generate the graphs in FIG. 4B.

adenylate cyclase (AC) [2] = test: Reporter Gene Assay with forskolin stimulation, HEK 293-T WT; format: cell-based, human; conditions: single wells
Description: as §1, with “reader.” for “reader. Second transfection stability. HEK 293-T LHCGR Luciferase were stimulated with forskolin 4 μM or left unstimulated. Results were reported as a fold change of treated cells over unstimulated control. All % CVs were calculated among fold changes obtained for the three banks and resulted below 25%. The mean and the SD of the 3 banks were calculated and used to generate the graphs in FIG. 4B.”

C=C[C@@]1(C)CC(=O)[C@]2(O)[C@@]3(C)[C@@H](O)CCC(C)(C)[C@@H]3[C@H](O)[C@H](OC(C)=O)[C@@]2(C)O1 [Forskolin, forskolin]
Luminescence values expressed as RLUs (adenylate cyclase (AC) [1]; forskolin 0.004 μM): 4221 RLUs and 4333 RLUs and 3899 RLUs | Luminescence values expressed as RLUs (adenylate cyclase (AC) [1]; forskolin 0.04 μM): 7547 RLUs and 6804 RLUs and 7636 RLUs | Luminescence values expressed as RLUs (adenylate cyclase (AC) [1]; forskolin 0.4 μM): 65001 RLUs and 62733 RLUs and 72165 RLUs | Luminescence values expressed as RLUs (adenylate cyclase (AC) [1]; forskolin 4 μM): 310180 RLUs and 299010 RLUs and 303780 RLUs | Luminescence values expressed as RLUs (adenylate cyclase (AC) [1]; forskolin 40 μM): 374090 RLUs and 378740 RLUs and 387970 RLUs | Luminescence values expressed as RLUs (adenylate cyclase (AC) [1]; forskolin 400 μM): 205580 RLUs and 197090 RLUs and 195210 RLUs | Luminescence values expressed as RLUs (adenylate cyclase (AC) [2]; forskolin 0.004 μM): 92 RLUs and 61 RLUs and 62 RLUs | Luminescence values expressed as RLUs (adenylate cyclase (AC) [2]; forskolin 0.04 μM): 124 RLUs and 88 RLUs and 68 RLUs | Luminescence values expressed as RLUs (adenylate cyclase (AC) [2]; forskolin 400 μM): 227 RLUs and 130 RLUs and 124 RLUs
